Consider 6 compounds from patent US20240002388A1, “PYRIMIDINONE COMPOUNDS AND USES THEREOF” (HUTCHISON MEDIPHARMA LIMITED, priority 2020, published 2024).

By IC50 is commonly meant the concentration needed to halve the response being measured.

The test system of the assay is L929 cell line (mouse fibroblastoma cell line). Briefly: L929 cell viability assay (mTNF-α + Z-VAD-FMK induced necroptosis). The settings on record: Mus musculus, L929, 20 h, L929 cells, mTNF-α 0.1 μg/mL + Z-VAD-FMK 5 μM, CellTiter-Glo. The assay is classed as cell-based. The essentials: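 L929 cells (4.9×10^3/well) in 1% FBS MEM got compound (10 to 0.005 μM, 0.3% DMSO), then 5 μM Z-VAD-FMK for 1 h, then 0.1 μg/mL mTNF-α for 20 h at 37 °C. CellTiter-Glo luminescence was normalised between TNF/Z-VAD and unstimulated wells, and IC50 was curve-fitted.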
A general note: Cellular ATP, detected with luciferase, serves as a proxy for viable cell number.
As to `CC(C)n1cncc(-c2ccc(C3(NC(=O)c4ncc5cnn([C@@H](C)C6CC6)c5n4)CC3)cc2)c1=O` [Compound 90, (S)-1-(1-cyclopropylethyl)-N-(1-(4-(1-i-propyl-6-oxo-1,6-dihydropyrimidin-5-yl)phenyl)cyclopropyl)-1H-pyrazolo[3,4-d]pyrimidine-6-carboxamide], the concentration for half-maximal inhibition (IC50) was 12 nM.

In the case of `CC(C)n1cncc(-c2ccc(C3(NC(=O)c4ncc5cnn(C(C)C)c5n4)CC3)c(F)c2Cl)c1=O` [Compound 91], the 50% inhibitory concentration (IC50) was 786 nM.

Turning to `CC(C)n1cncc(-c2cc(F)c(C3(NC(=O)c4ncc5cnn(C(C)C)c5n4)CC3)c(F)c2)c1=O` [Compound 92], the IC50 was found to be 3130 nM.

Consider `CC(C)n1cncc(-c2ccc(C3(NC(=O)c4ncc5cnn(C(C)C)c5n4)CC3)c(F)c2F)c1=O` [Compound 93], for which the IC50 is 148 nM.

For `CC(C)n1ncc2cnc(C(=O)NC3(c4cc(F)c(-c5cncn(CC6CC6)c5=O)cc4F)CC3)nc21` [Compound 94], the IC50 turned out to be 50 nM.

Regarding `CC(C)n1ncc2cnc(C(=O)NC3(c4ccc(-c5cncn(CC6CC6)c5=O)c(F)c4F)CC3)nc21` [Compound 95], the IC50 stood at 145 nM.
